Holding throughout (format): cell-based
One experiment addresses T1, human TLR9 (Homo sapiens, UniProt Q9NR96).
T1 construct: host or cells: HEK-Blue cells
T1 sequence (Q9NR96 26-1032): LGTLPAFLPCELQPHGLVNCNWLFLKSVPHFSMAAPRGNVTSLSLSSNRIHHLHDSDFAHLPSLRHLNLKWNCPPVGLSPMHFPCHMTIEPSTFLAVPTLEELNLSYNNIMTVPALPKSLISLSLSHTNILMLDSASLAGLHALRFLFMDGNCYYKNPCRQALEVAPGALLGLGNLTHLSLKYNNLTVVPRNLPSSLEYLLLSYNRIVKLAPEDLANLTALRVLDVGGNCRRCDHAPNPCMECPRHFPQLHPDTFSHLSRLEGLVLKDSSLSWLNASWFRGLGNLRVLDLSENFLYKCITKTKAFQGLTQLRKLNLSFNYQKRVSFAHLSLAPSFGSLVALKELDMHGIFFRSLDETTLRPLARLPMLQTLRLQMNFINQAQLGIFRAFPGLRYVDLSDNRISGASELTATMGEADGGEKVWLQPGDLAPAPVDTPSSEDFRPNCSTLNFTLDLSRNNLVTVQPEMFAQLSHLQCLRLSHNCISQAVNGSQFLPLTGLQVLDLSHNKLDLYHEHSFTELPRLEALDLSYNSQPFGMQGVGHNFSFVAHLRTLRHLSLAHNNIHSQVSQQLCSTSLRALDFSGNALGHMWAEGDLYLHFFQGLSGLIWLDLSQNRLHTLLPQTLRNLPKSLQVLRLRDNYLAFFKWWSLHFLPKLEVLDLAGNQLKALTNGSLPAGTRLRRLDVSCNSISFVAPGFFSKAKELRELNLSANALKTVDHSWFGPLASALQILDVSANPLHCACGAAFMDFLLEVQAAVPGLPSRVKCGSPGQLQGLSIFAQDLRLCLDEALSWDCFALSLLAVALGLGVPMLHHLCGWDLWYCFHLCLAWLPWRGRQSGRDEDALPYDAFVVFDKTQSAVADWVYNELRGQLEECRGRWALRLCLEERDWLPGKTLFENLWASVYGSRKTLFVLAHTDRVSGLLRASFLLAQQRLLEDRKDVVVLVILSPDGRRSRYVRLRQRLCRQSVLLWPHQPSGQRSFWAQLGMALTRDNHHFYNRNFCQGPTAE
In words: TLR9 inhibition reporter assay (HEK-Blue cells, SEAP reporter, ODN2006 stimulation). The following applies: HEK-Blue cells overexpressing human TLR9, SEAP reporter, ODN2006 5 nM. In outline: (§1)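 Ligand levels differed by receptor: TLR7 got gardiquimod at 7.5 μM, TLR8 got R848 at 15.9 μM, and TLR9 got ODN2006 at 5 nM, each added after a 30-min room-temperature compound exposure. Incubation lasted 22 h at 37° C before colorimetric SEAP detection.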

Another experiment concerns the target T2, human TLR8 (Homo sapiens, UniProt Q9NR97).
T2 construct: host or cells: HEK-Blue cells
T2 sequence (Q9NR97 27-1041): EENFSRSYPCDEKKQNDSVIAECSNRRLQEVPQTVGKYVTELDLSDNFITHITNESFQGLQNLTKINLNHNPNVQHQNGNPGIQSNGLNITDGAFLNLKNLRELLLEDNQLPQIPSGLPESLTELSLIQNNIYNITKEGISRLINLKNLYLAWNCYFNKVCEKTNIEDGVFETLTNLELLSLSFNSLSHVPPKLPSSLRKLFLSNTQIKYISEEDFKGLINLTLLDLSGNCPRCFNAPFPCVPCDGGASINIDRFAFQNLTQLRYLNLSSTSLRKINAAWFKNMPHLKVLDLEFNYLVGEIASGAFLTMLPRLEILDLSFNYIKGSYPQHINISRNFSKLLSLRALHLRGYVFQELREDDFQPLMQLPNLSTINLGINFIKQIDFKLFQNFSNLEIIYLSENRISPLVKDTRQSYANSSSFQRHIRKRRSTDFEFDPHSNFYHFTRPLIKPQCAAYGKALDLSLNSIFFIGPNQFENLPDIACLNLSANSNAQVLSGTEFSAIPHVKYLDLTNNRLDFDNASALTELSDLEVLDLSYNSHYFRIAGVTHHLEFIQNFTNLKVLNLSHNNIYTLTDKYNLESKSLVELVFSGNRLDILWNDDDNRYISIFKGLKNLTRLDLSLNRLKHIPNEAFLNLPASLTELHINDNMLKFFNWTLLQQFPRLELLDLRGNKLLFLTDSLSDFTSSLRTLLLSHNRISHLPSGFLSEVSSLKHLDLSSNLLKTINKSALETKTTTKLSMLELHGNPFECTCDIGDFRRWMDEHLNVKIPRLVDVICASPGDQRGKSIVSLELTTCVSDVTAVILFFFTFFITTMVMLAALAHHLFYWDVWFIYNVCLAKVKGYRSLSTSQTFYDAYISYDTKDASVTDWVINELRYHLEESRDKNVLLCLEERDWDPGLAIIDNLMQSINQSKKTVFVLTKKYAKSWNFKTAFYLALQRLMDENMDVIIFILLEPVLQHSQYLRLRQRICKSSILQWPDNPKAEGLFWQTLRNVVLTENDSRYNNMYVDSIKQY
In words: TLR8 inhibition reporter assay (HEK-Blue cells, SEAP reporter, R848 stimulation). To be noted: HEK-Blue cells overexpressing human TLR8, SEAP reporter, R848 15.9 μM. Summed up:
as §1

Another experiment concerns the target T3, human TLR7 (Homo sapiens, UniProt Q9NYK1).
T3 construct: host or cells: HEK-Blue cells
T3 sequence (Q9NYK1 27-1049): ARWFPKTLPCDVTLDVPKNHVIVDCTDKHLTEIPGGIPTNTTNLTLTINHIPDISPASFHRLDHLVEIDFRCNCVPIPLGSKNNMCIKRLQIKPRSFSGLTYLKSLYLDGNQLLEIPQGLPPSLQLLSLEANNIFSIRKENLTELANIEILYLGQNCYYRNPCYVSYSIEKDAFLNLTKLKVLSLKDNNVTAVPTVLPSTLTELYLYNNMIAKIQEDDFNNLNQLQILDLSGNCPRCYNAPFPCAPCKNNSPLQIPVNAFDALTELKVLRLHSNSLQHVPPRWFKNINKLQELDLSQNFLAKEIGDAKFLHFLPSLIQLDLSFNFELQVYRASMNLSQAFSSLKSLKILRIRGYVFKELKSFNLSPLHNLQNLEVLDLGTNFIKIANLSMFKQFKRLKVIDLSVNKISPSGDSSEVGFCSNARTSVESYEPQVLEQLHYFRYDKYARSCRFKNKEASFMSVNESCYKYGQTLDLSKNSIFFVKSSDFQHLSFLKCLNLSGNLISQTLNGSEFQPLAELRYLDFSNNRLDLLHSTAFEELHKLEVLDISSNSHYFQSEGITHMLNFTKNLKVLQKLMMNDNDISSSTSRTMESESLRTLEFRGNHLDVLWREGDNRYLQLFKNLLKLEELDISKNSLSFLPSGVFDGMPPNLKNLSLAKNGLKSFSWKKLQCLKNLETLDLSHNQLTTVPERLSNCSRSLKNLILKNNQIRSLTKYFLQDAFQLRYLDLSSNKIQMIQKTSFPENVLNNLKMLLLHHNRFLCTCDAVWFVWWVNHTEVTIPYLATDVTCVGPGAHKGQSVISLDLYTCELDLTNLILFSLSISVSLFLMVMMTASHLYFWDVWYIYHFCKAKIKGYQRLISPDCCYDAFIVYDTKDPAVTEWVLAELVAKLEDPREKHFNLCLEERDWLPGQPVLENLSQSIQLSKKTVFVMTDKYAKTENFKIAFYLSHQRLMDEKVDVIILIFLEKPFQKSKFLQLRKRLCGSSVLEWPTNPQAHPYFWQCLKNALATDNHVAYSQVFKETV
In words: TLR7 inhibition reporter assay (HEK-Blue cells, SEAP reporter, gardiquimod stimulation). The following applies: HEK-Blue cells overexpressing human TLR7, SEAP reporter, gardiquimod 7.5 μM. Summed up:
as §1

With `COc1ncc(CN[C@H]2CC[C@@H](NC(=O)c3n[nH]c(-c4cc(C)c5ncnn5c4)c3C(C)C)CC2)cn1` [Example 96], the IC50 at human TLR9 was found to be 7.77 µM; against human TLR8, 0.98 nM; against human TLR7, 1.53 nM.
The like results for `Cc1cc(-c2[nH]nc(C(=O)N[C@H]3CC[C@@H](NC4CCOC(C)(C)C4)CC3)c2C(C)C)cn2ncnc12` (stereo partly drawn) [Example 97] were, in that order, 5.49 µM, 41.9 nM and 2.42 nM.
Turning to `Cc1cc(-c2[nH]nc(C(=O)N[C@H]3CC[C@@H](NC4CCOCC4)CC3)c2C(C)C)cn2ncnc12` [Example 98], the IC50 at human TLR9 stood at 2.98 µM; on human TLR8, 1.37 nM; on human TLR7, 0.12 nM.
Consider `Cc1cc(-c2[nH]nc(C(=O)N[C@H]3CC[C@@H](NC(C)C(C)C)CC3)c2C(C)C)cn2ncnc12` (stereo partly drawn) [Example 99], for which the concentration for half-maximal inhibition (IC50) against human TLR9 is 3.61 µM; on human TLR8 it was 36.7 nM; against human TLR7 it was 1.19 nM.
The like results for `CCC(CC)N[C@H]1CC[C@@H](NC(=O)c2n[nH]c(-c3cc(C)c4ncnn4c3)c2C(C)C)CC1` [Example 100] were, in that order, 6.4 µM, 114 nM and 78.9 nM.
The like results for `CCC(CC)CN[C@H]1CC[C@@H](NC(=O)c2n[nH]c(-c3cc(C)c4ncnn4c3)c2C(C)C)CC1` [Example 101] were, in that order, 4.79 µM, 23 nM and 3.68 nM.
As for `Cc1cc(-c2[nH]nc(C(=O)N[C@H]3CC[C@@H](NCc4cncnc4)CC3)c2C(C)C)cn2ncnc12` [Example 102], the values for the IC50 on human TLR9, on human TLR8 and on human TLR7 were 3.89 µM, 14 nM and 0.37 nM, respectively.
With `Cc1cc(-c2[nH]nc(C(=O)N[C@H]3CC[C@H](N(CC4CC4)CC4CC4)CC3)c2C(C)C)cn2ncnc12` [Example 103], the IC50 at human TLR9 was 3.6 µM; against human TLR8, 3.46 nM; against human TLR7 it was 48 nM.
The like results for `Cc1ncc(CN[C@H]2CC[C@H](NC(=O)c3n[nH]c(-c4cc(C)c5ncnn5c4)c3C(C)C)CC2)cn1` [Example 104] were, in that order, 5.6 µM, 2.81 nM and 1.98 nM.
Consider `Cc1cc(-c2[nH]nc(C(=O)N[C@H]3CC[C@H](NCC4CCOC4)CC3)c2C(C)C)cn2ncnc12` (stereo partly drawn) [Example 105], for which the IC50 against human TLR9 is 2.18 µM; against human TLR8, 43.2 nM; on human TLR7, 1.38 nM.
Take `Cc1cc(-c2[nH]nc(C(=O)N[C@H]3CC[C@H](NCC(C)(C)C)CC3)c2C(C)C)cn2ncnc12` [Example 106]: the IC50 came to 14.3 µM on human TLR9, 90.9 nM at human TLR8 and 2.25 nM at human TLR7.
Regarding `Cc1cc(-c2[nH]nc(C(=O)N[C@H]3CC[C@H](N(CCC(C)(C)C)CCC(C)(C)C)CC3)c2C(C)C)cn2ncnc12` [Example 107], the IC50 is 15.4 µM against human TLR9, 190 nM on human TLR8 and 3.6 nM on human TLR7.
Consider `Cc1cc(-c2[nH]nc(C(=O)N[C@H]3CC[C@H](N(CCC(C)C)CCC(C)C)CC3)c2C(C)C)cn2ncnc12` [Example 108], for which the IC50 against human TLR9 worked out at 5.7 µM; on human TLR8 it was 4.49 nM; against human TLR7 it was 1.34 nM.
Take `Cc1cc(-c2[nH]nc(C(=O)N[C@H]3CC[C@H](NCC4CCCC4)CC3)c2C(C)C)cn2ncnc12` [Example 109]: the half-inhibitory concentration (IC50) against human TLR9 worked out at 6.09 µM; against human TLR8, 27.9 nM; on human TLR7, 6.81 nM.
Regarding `CCC(CC)CN[C@H]1CC[C@H](NC(=O)c2n[nH]c(-c3cc(C)c4ncnn4c3)c2C(C)C)CC1` [Example 110], the results for the IC50 against human TLR9, on human TLR8 and against human TLR7 were 5.78 µM, 0.93 nM and 2.21 nM, respectively.
As to `Cc1cc(-c2[nH]nc(C(=O)N[C@H]3CC[C@H](NCC4CCOCC4)CC3)c2C(C)C)cn2ncnc12` [Example 111], the IC50 at human TLR9 was determined as 3.93 µM; against human TLR8, 33.7 nM; on human TLR7, 2.97 nM.
As to `Cc1cc(-c2[nH]nc(C(=O)N[C@H]3CC[C@H](NCc4cccnc4)CC3)c2C(C)C)cn2ncnc12` [Example 112], the IC50 at human TLR9 was over 50 µM; at human TLR8, 28.3 nM; at human TLR7, 11.4 nM.
For the molecule `Cc1cc(-c2[nH]nc(C(=O)N[C@H]3CC[C@H](NCc4cncnc4)CC3)c2C(C)C)cn2ncnc12` [Example 113], the IC50 on human TLR9 was found to be 7.8 µM; on human TLR8 it was 27.1 nM; at human TLR7, 1.09 nM.
As for `COc1ncc(CN[C@H]2CC[C@H](NC(=O)c3n[nH]c(-c4cc(C)c5ncnn5c4)c3C(C)C)CC2)cn1` [Example 114], the half-inhibitory concentration (IC50) against human TLR9 worked out at 1.46 µM; at human TLR8 it was 1.4 nM; on human TLR7 it was 3.63 nM.
With `Cc1cc(-c2[nH]nc(C(=O)N[C@H]3CC[C@H](NC4CCOC(C)(C)C4)CC3)c2C(C)C)cn2ncnc12` (stereo partly drawn) [Example 115], the IC50 on human TLR9 amounted to 1.21 µM; against human TLR8, 17 nM; at human TLR7 it was 11.7 nM.

Values taken from patent publication US20230117470A1, “SUBSTITUTED PYRAZOLE COMPOUNDS AS TOLL RECEPTOR INHIBITORS” (BRISTOL-MYERS SQUIBB COMPANY, priority 2019, published 2023).
